Laboratory results taken from paper PMC8320071 (ACS Omega, 2021).

T1: leucine aminopeptidase from Leishmania donovani (LdLAP) (Leishmania donovani, UniProt A0A3S7WXR2)
T1 sequence (A0A3S7WXR2 1-565): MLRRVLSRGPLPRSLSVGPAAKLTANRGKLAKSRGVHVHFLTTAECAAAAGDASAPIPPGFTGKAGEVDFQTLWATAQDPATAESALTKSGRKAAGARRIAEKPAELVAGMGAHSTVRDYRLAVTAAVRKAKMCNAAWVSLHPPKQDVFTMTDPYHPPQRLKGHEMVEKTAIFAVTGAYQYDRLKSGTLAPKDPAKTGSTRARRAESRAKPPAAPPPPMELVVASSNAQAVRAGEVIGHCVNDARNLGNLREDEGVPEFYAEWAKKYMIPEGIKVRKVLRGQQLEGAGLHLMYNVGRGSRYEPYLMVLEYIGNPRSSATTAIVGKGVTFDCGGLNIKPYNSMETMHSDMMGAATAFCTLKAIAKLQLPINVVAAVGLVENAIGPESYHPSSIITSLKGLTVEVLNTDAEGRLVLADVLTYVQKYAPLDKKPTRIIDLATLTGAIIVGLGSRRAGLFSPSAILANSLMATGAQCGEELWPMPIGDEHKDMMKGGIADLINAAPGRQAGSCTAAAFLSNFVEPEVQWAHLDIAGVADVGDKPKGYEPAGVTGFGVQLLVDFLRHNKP


Experiments:
[1] = biological target: T1, leucine aminopeptidase from Leishmania donovani (LdLAP); test: Leu-AMC fluorogenic aminopeptidase assay with double-reciprocal plots; assay type: biochemical
purified protein = substrate: Cc1cc(=O)oc2cc(NC(=O)[C@@H](N)CC(C)C)ccc12; test: purified protein; settings: Mn(II)

Ki [1] [nM]	Molecule	Km (purified protein) [µM]	kcat/Km (purified protein) [M⁻¹ s⁻¹]
2.7	CCCCC[C@H](CC(=O)NO)C(=O)N[C@H](C(=O)N1CCC[C@H]1CO)C(C)C [actinonin]		
4.38	CC(C)C[C@H](NC(=O)[C@@H](O)[C@H](N)Cc1ccccc1)C(=O)O [bestatin]		
	leucine aminopeptidase from Leishmania donovani (LdLAP) (Leishmania donovani) (protein) MLRRVLSRGPLPRSLSVGPAAKLTANRGKLAKSRGVHVHFLTTAECAAAAGDASAPIPPGFTGKAGEVDFQTLWATAQDPATAESALTKSGRKAAGARRIAEKPAELVAGMGAHSTVRDYRLAVTAAVRKAKMCNAAWVSLHPPKQDVFTMTDPYHPPQRLKGHEMVEKTAIFAVTGAYQYDRLKSGTLAPKDPAKTGSTRARRAESRAKPPAAPPPPMELVVASSNAQAVRAGEVIGHCVNDARNLGNLREDEGVPEFYAEWAKKYMIPEGIKVRKVLRGQQLEGAGLHLMYNVGRGSRYEPYLMVLEYIGNPRSSATTAIVGKGVTFDCGGLNIKPYNSMETMHSDMMGAATAFCTLKAIAKLQLPINVVAAVGLVENAIGPESYHPSSIITSLKGLTVEVLNTDAEGRLVLADVLTYVQKYAPLDKKPTRIIDLATLTGAIIVGLGSRRAGLFSPSAILANSLMATGAQCGEELWPMPIGDEHKDMMKGGIADLINAAPGRQAGSCTAAAFLSNFVEPEVQWAHLDIAGVADVGDKPKGYEPAGVTGFGVQLLVDFLRHNKP	57.29	5820
